Common to all, as to format: in vivo
The test system of experiment [1] is Cercospora beticola. The experiment in a line: Leaf Spot of Sugar Beets fungicidal activity (CERCBE). As to conditions: 24 h, 1 Day Protectant, sugar beet, read-out: Disease Control CERCBE 1DP. The procedure:
Technical grades of materials were dissolved in acetone, which were then mixed with nine volumes of water containing 110 ppm Triton X-100. The fungicide solutions were applied onto wheat seedlings using an automated booth sprayer to run-off. All sprayed plants were allowed to air dry prior to further handling. All fungicides were evaluated using the aforementioned method for their activity vs. all target diseases. Wheat leaf blotch and brown rust activity were also evaluated using track spray applications, in which case the fungicides were formulated as EC formulations, containing 0.1% Trycol 5941 in the spray solutions. Wheat plants (variety Yuma) were grown from seed in a greenhouse in 50% mineral soil/50% soil-less Metro mix until the first leaf was fully emerged, with 7-10 seedlings per pot. These plants were inoculated with an aqueous spore suspension of Septoria tritici either prior to or after fungicide treatments. After inoculation the plants were kept in 100% relative humidity (one day in a dark dew chamber followed by two to three days in a lighted dew chamber at 20° C.) to permit spores to germinate and infect the leaf. The plants were then transferred to a greenhouse set at 20° C. for disease to develop. When disease symptoms were fully expressed on the 1st leaves of untreated plants, infection levels were assessed on a scale of 0 to 100 percent disease severity. Percent disease control was calculated using the ratio of disease severity on treated plants relative to untreated plants. Evaluation of Fungicidal Activity: Leaf Spot of Sugar Beets (Cercospora beticola; Bayer Code CERCBE) Sugar beet plants (variety HH88) were grown in soil-less Metro mix and trimmed regularly to maintain a uniform plant size prior to test. Plants were inoculated with a spore suspension 24 hr after fungicide treatments. Inoculated plants were kept in a dew chamber at 22° C. for 48 hr then incubated in a greenhouse set at 24° C. under a clear plastic hood with bottom ventilation until disease symptoms were fully expressed. Fungicide formulation, application and disease assessment on the sprayed leaves followed the procedures as described in the Example A.

Experiment [2] has as its system Puccinia triticina. Kind of experiment: Wheat Brown Rust fungicidal activity (PUCCRT). The note with it: Puccinia triticina; for pest or weed control at 100 ppm: rate 100 ppm; for pest or weed control at 121.5 g/ha: rate 121.5 g/H. In a few lines:
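Yuma wheat seedlings at first-leaf stage sprayed to run-off (acetone solution in water with 110 ppm Triton X-100) or track-sprayed as EC with 0.1% Trycol 5941; inoculated with P. triticina spores before or after treatment. Overnight dark dew at 22° C., then greenhouse 24° C.; disease severity 0–100% gives percent control vs untreated.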

Experiment [3] concerns Alternaria solani. Kind of experiment: Tomato Early Blight fungicidal activity (ALTESO). As to conditions: 24 h, 1 Day Protectant, read-out: Disease Control ALTESO 1DP. The procedure:
Technical grades of materials were dissolved in acetone, which were then mixed with nine volumes of water containing 110 ppm Triton X-100. The fungicide solutions were applied onto wheat seedlings using an automated booth sprayer to run-off. All sprayed plants were allowed to air dry prior to further handling. All fungicides were evaluated using the aforementioned method for their activity vs. all target diseases. Wheat leaf blotch and brown rust activity were also evaluated using track spray applications, in which case the fungicides were formulated as EC formulations, containing 0.1% Trycol 5941 in the spray solutions. Wheat plants (variety Yuma) were grown from seed in a greenhouse in 50% mineral soil/50% soil-less Metro mix until the first leaf was fully emerged, with 7-10 seedlings per pot. These plants were inoculated with an aqueous spore suspension of Septoria tritici either prior to or after fungicide treatments. After inoculation the plants were kept in 100% relative humidity (one day in a dark dew chamber followed by two to three days in a lighted dew chamber at 20° C.) to permit spores to germinate and infect the leaf. The plants were then transferred to a greenhouse set at 20° C. for disease to develop. When disease symptoms were fully expressed on the 1st leaves of untreated plants, infection levels were assessed on a scale of 0 to 100 percent disease severity. Percent disease control was calculated using the ratio of disease severity on treated plants relative to untreated plants. Evaluation of Fungicidal Activity: Tomato Early Blight (Alternaria solani; Bayer Code […]) Tomato plants (variety Outdoor girl) were propagated in soil-less Metro mix, with each pot having one plant, and used when 12 to 14 days old. Test plants were inoculated with an aqueous spore suspension of Alternaria solani 24 hr after fungicide treatments. After inoculation the plants were kept in 100% relative humidity (one day in a dark dew chamber followed by two to three days in a lighted dew chamber at 20° C.) to permit spores to germinate and infect the leaf. The plants were then transferred to a growth room at 22° C. for disease to develop. Fungicide formulation, application and disease assessment on the sprayed leaves followed the procedures as described in the Example A.

Setting [4] is: 24 h, 1 Day Protectant, read-out: Disease control PUCCRT 1DP.
Where [5] appears, read: 72 h, 3 Day Curative, read-out: Disease control PUCCRT 3DC.

From patent US9179674B2, “Macrocyclic picolinamide compounds with fungicidal activity” (DOW AGROSCIENCES LLC, priority 2013, dated 2015) come the findings set out here.

Structures are written as SMILES. Read-outs that look alike come from different tables or passages of the source.

For the compound `COc1ccnc(C(=O)N[C@H]2COC[C@H](Cc3ccc(F)cc3)[C@@H](OCC(C)C)[C@H](C)OC2=O)c1OC(C)=O` [Compound F60], the pest or weed control at 100 ppm in experiment [1], in experiment [2] (setting [4]) and in experiment [2] (setting [5]) was 80 to 100% throughout. Also, the pest or weed control at 121.5 g/ha in experiment [2] (setting [4]) and in experiment [2] (setting [5]) was 80 to 100% in each case.
Regarding `COc1ccnc(C(=O)N[C@H]2COC[C@H](Cc3ccc(Cl)cc3Cl)[C@@H](OC(=O)C(C)C)[C@H](C)OC2=O)c1OC(C)=O` [Compound F73], the pest or weed control at 100 ppm in experiment [3] was in the range of 0 to 80%; in experiment [1] it was 80 to 100%; in experiment [2] (setting [4]), 80 to 100%; in experiment [2] (setting [5]), 80 to 100%. Also, the pest or weed control at 121.5 g/ha in experiment [2] (setting [4]) was 80 to 100%; in experiment [2] (setting [5]), 0 to 80%.
As to `COc1ccnc(C(=O)N[C@H]2COC[C@H](Cc3ccc(C)cc3)[C@@H](OCC(C)C)[C@H](C)OC2=O)c1OC(C)=O` [Compound F80], the pest or weed control at 100 ppm in experiment [3], in experiment [1], in experiment [2] (setting [4]) and in experiment [2] (setting [5]) was 80 to 100% each time. The pest or weed control at 121.5 g/ha in experiment [2] (setting [4]) and in experiment [2] (setting [5]) was 80 to 100% throughout.
`COc1ccnc(C(=O)N[C@H]2COC[C@H](CCc3ccccc3)[C@@H](OCC(C)C)[C@H](C)OC2=O)c1OCOC(C)=O` [Compound F82]: the pest or weed control at 100 ppm was 0 to 80% in experiment [3], 0 to 80% in experiment [1], 80 to 100% in experiment [2] (setting [4]) and 80 to 100% in experiment [2] (setting [5]). The pest or weed control at 121.5 g/ha in experiment [2] (setting [4]) and in experiment [2] (setting [5]) was 80 to 100% in each case.
Regarding `COc1ccnc(C(=O)N[C@H]2COC[C@H](Cc3cccc4ccccc34)[C@@H](OC(=O)C(C)C)[C@H](C)OC2=O)c1OCOC(C)=O` [Compound F83, (3S,6S,7R,8S)-3-(3-(acetoxymethoxy)-4-methoxypicolin-amido)-6-methyl-8-(naphthalen-1-ylmethyl)-4-oxo-1,5-dioxonan-7-yl isobutyrate], the pest or weed control at 100 ppm in experiment [1], in experiment [2] (setting [4]) and in experiment [2] (setting [5]) was 80 to 100% each time. The pest or weed control at 121.5 g/ha is 80 to 100% in experiment [2] (setting [4]) and 0 to 80% in experiment [2] (setting [5]).
`COc1ccnc(C(=O)N[C@H]2COC[C@H](Cc3ccc(F)cc3)[C@@H](OCC(C)C)[C@H](C)OC2=O)c1OCOC(C)=O` [Compound F96]: the pest or weed control at 100 ppm in experiment [3], in experiment [1], in experiment [2] (setting [4]) and in experiment [2] (setting [5]) was 80 to 100% each time. In addition, the pest or weed control at 121.5 g/ha in experiment [2] (setting [4]) and in experiment [2] (setting [5]) was 80 to 100% throughout.
Regarding `COc1ccnc(C(=O)N[C@H]2COC[C@H](CC(F)(F)F)[C@@H](OC3CCCC3)[C@H](C)OC2=O)c1OCOC(C)=O` [Compound F105], the pest or weed control at 100 ppm lay in the range of 0 to 80% in experiment [3], 80 to 100% in experiment [1], 80 to 100% in experiment [2] (setting [4]) and 80 to 100% in experiment [2] (setting [5]). Besides, the pest or weed control at 121.5 g/ha in experiment [2] (setting [4]) and in experiment [2] (setting [5]) was 80 to 100% throughout.
With `COc1ccnc(C(=O)N[C@H]2COC[C@H](CCC(C)C)[C@@H](OCCCC(F)(F)F)[C@H](C)OC2=O)c1OCOC(C)=O` [Compound F107], the pest or weed control at 100 ppm in experiment [3], in experiment [1], in experiment [2] (setting [4]) and in experiment [2] (setting [5]) was 80 to 100% each time. For the same compound, the pest or weed control at 121.5 g/ha in experiment [2] (setting [4]) and in experiment [2] (setting [5]) was 80 to 100% in each case.
As for `COc1ccnc(C(=O)N[C@H]2COC[C@H](CCC(C)C)[C@@H](OC(=O)C3CC3)[C@H](C)OC2=O)c1OCOC(C)=O` [Compound F108], the pest or weed control at 100 ppm in experiment [3], in experiment [1], in experiment [2] (setting [4]) and in experiment [2] (setting [5]) was 80 to 100% in each case. Further, the pest or weed control at 121.5 g/ha in experiment [2] (setting [4]) and in experiment [2] (setting [5]) was 80 to 100% in each case.
For `COc1ccnc(C(=O)N[C@H]2COC[C@H](Cc3ccc(Cl)cc3Cl)[C@@H](OC(=O)C(C)C)[C@H](C)OC2=O)c1OCOC(C)=O` [Compound F110], the pest or weed control at 100 ppm in experiment [3], in experiment [1], in experiment [2] (setting [4]) and in experiment [2] (setting [5]) was 80 to 100% each time. Moreover, the pest or weed control at 121.5 g/ha in experiment [2] (setting [4]) is 80 to 100%; in experiment [2] (setting [5]), 0 to 80%.
On to `COc1ccnc(C(=O)N[C@H]2COC[C@H](CC3CCCC3)[C@@H](OC(=O)C(C)C)[C@H](C)OC2=O)c1OCOC(C)=O` [Compound F114], for which the pest or weed control at 100 ppm in experiment [3], in experiment [1], in experiment [2] (setting [4]) and in experiment [2] (setting [5]) was 80 to 100% in each case. Besides, the pest or weed control at 121.5 g/ha in experiment [2] (setting [4]) and in experiment [2] (setting [5]) was 80 to 100% in each case.
For `COc1ccnc(C(=O)N[C@H]2COC[C@H](Cc3ccc(C)cc3)[C@@H](OCC(C)C)[C@H](C)OC2=O)c1OCOC(C)=O` [Compound F117], the pest or weed control at 100 ppm in experiment [3], in experiment [1], in experiment [2] (setting [4]) and in experiment [2] (setting [5]) was 80 to 100% in each case. Further, the pest or weed control at 121.5 g/ha in experiment [2] (setting [4]) and in experiment [2] (setting [5]) was 80 to 100% throughout.
As to `CCCCCO[C@@H]1[C@@H](Cc2ccc(Cl)cc2Cl)COC[C@H](NC(=O)c2nccc(OC)c2OCOC(=O)COCC)C(=O)O[C@H]1C` [Compound F122], the pest or weed control at 100 ppm in experiment [3] and in experiment [1] was 80 to 100% in each case. Moreover, the values for the pest or weed control at 121.5 g/ha in experiment [2] (setting [4]) and in experiment [2] (setting [5]) were 80 to 100% and 0 to 80%, respectively.
Turning to `CCCCCO[C@@H]1[C@@H](Cc2ccc(Cl)cc2Cl)COC[C@H](NC(=O)c2nccc(OC)c2OC(=O)CCOC)C(=O)O[C@H]1C` [Compound F123], the pest or weed control at 100 ppm in experiment [3] and in experiment [1] was 80 to 100% in each case. Besides, the pest or weed control at 121.5 g/ha in experiment [2] (setting [4]) lay in the range of 80 to 100%.
